Assay results reported in US7189724B2, “Quinoxaline derivatives having antiviral activity” (Valeant Research and Development, priority 2003, dated 2007).
Where two headings read alike, the source gives them in different places.

What was measured:
HCV NS5B polymerase = molecular target: T1, HCV NS5B polymerase (Hepatitis C virus genotype 1b, UniProt Q9WMX2); assay: De novo RNA synthesis activity assay for HCV NS5B polymerase; assay type: biochemical, HCV-1b CON1 strain
T1 construct: HCV NS5B was derived from a cDNA clone encoding HCV-1b CON1 strain, and was expressed and purified from E. coli; made in house; host or cells: E. coli
T1 sequence (Q9WMX2 2420-3010): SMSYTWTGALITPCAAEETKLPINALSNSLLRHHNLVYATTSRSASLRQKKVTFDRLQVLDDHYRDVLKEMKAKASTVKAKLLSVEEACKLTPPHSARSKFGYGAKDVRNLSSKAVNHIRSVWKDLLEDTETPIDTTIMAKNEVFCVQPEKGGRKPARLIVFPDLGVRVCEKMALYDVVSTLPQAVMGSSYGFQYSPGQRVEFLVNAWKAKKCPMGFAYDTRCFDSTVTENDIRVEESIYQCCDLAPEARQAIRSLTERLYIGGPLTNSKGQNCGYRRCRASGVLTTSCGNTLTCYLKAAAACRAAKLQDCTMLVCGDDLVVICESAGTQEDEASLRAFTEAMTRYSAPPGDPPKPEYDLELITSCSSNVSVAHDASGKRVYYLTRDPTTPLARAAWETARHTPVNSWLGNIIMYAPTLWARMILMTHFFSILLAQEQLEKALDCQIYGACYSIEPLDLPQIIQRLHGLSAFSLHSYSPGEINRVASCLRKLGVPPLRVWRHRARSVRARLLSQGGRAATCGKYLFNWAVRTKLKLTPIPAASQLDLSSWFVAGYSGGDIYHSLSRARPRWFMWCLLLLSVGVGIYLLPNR
Excerpt: HCV NS5B was derived from a cDNA clone encoding HCV-1b CON1 strain, and was expressed and purified from E. coli. Various [α-^33P]rNTPs (3000 Ci/mmol) were purchased from Perkin Elmer. 3′-Deoxy ribonucleosides, their 5′-triphosphates and dinucleotide primers were from Sigma, TriLink (San Diego, Calif.) or ICN Biochemicals. All other reagents were of the highest grade available from ICN, Sigma, Fisher, or Ambion.
An HCV mini-genome of 2.1-kb contains an entire 5′-UTR (untranslated region), part of NS5B sequence and an entire 3′-UTR was constructed from an internal deletion between two KpnI sites on the HCV replicon plasmid, pFK389/NS3-3′. To generate the in vitro transcribed mini-genome RNA, the plasmid DNA was linearized with AseI and ScaI and transcribed in vitro using a MegaScript kit (Ambion, Austin, Tex.). After phenol-chloroform extraction and isopropanol precipitation, the RNA was resuspended in RNase-free water and stored at −80° C. before use. This HCV strain CON1-based template was used for the standard NS5B-catalyzed RNA synthesis assay.
A standard NS5B activity assay was performed at 23C in a total volume of 25 μl. The reaction buffer contained 50 mM Tris, pH 7.0, 10 mM MgCl2, 50 mM NaCl, 5 mM DTT (add fresh) and 0.05 mg/ml BSA. 0.4 μg of the RNA template was incubated with NS5B enzyme (250 nM) before adding a mixture of radiolabeled nucleotide (0.2 μCi) and cold nucleotide cocktail to initiate a reaction. The assay was incubated for 1 hr and terminated by addition of 75 μl of 5% trichloroacetic acid (TCA) and 0.05% pyrophosphate solution. The quenched solution was incubated at room temperature for 10 min to precipitate out polymeric products and subsequently transferred to a 96-well white GF/B filter microplate (Packard Instrument) using a Packard Filtermate Universal Harvester. The filter plate was washed five times by water and one time by ethanol before vacuum drying. 40 μl of liquid scintillation cocktail (Packard MicroSint™) was added to each well. Radioactivity incorporated into the product was counted in a 96-well format using a Packard TopCount. IC50 values, defined as the inhibitor concentration to suppress 50% of NS5B activity, were determined by varying the compound concentration. The results in Table 1 are data obtained using the HCV NS5B assays described above.

[1] = system: HCV replicon RNA in replicon cells (Huh-7); assay: HCV Replicon Assay (reduction of HCV RNA, QuantiGene); assay type: cell-based; settings: Hepatitis C virus; for IC50: read-out: HCV Replicon (IC50); for EC50: first part of Table 1 (scaffold drawing 18)
Description: The anti-HCV activity of the quinoxaline derivatives was tested by replicon and BVDV cell-line based assays. The HCV NS5B polymerase activity was tested as described below, and was further tested for its capability of inhibition of replication of the hepatitis C virus in a cell-line based HCV replicon assay as described in V. Lohmann, F. Komer, J.-O. Koch, U. Herian, L. Theilmann, R. Bartenschlager, “Replication of a Subgenomic Hepatitis C virus RNAs in a Hepatoma Cell Line”, Science, 1999, 285:110.
HCV Replicon Assay. The replicon cells (Huh-7) contain replicating HCV replicon RNA, which was modified in the structural region (replacing the structural region with a neomycin resistance marker). Survival of the replicon cells under G418 selection relies on the replication of HCV RNA and subsequently expression of neomycin phosphoryltransferase. The ability of modified nucleoside libraries and compounds to suppress HCV RNA replication was determined using the QuantiGene™ Assay Kit (Bayer Diagnostics, Tarrytown N.Y.). The assay measures the reduction of HCV RNA molecules in the treated cells. Replicon cells were incubated at 37° C. for 3 days in the presence of nucleoside libraries and compounds before being harvested for detection. The assay protocol was modified based on literature procedure (V. Lohmann, F. Komer, J. O. Koch, U. Herian, L. Theilmann, R. Bartenschlager, Science, 1999, 285, 110–113). The HCV subgenomic replicon cell line was provided by Dr. R. Bartenschlager.

[2] = 72 h, Huh-7 replicon cells, 3 days at 37° C., second part of Table 1 (scaffold drawing 19)
[3] = NS5B 250 nM, 23C, 1 hr, second part of Table 1 (scaffold drawing 19), read-out: HCV NS5B (EC50)
[4] = 72 h, Huh-7 replicon cells, 3 days at 37° C.

COC(=O)c1ccc2nc(-c3ccc(F)cc3)c(-c3ccc(F)cc3)nc2c1
EC50 (HCV NS5B polymerase): > 50 µM | IC50 [1, 2]: > 50 µM

O=C(O)c1ccc2nc(-c3ccccc3)c(-c3ccccc3)nc2c1
EC50 (HCV NS5B polymerase): < 10 µM | IC50 [1, 2]: > 50 µM

O=C(N[C@@H](Cc1c[nH]c2ccccc12)C(=O)O)c1ccc2nc(-c3ccccc3)c(-c3ccccc3)nc2c1
EC50 (HCV NS5B polymerase): 10 to 50 µM

O=C(N[C@@H](Cc1c[nH]c2ccc(O)cc12)C(=O)O)c1ccc2nc(-c3ccccc3)c(-c3ccccc3)nc2c1
EC50 (HCV NS5B polymerase; [3]): > 50 µM

COC(=O)[C@H](Cc1c[nH]c2ccccc12)NC(=O)c1ccc2nc(-c3ccccc3)c(-c3ccccc3)nc2c1
EC50 (HCV NS5B polymerase; [3]): > 50 µM

O=C(O)c1ccc2nc(-c3ccccn3)c(-c3ccccn3)nc2c1
EC50 (HCV NS5B polymerase): > 50 µM | IC50 [1, 2]: > 50 µM

COC(=O)[C@H](Cc1c[nH]c2ccccc12)NC(=O)c1ccc2nc(-c3ccccn3)c(-c3ccccn3)nc2c1
EC50 (HCV NS5B polymerase): > 50 µM | IC50 [1, 2]: > 50 µM

O=C(N[C@@H](Cc1c[nH]c2ccccc12)C(=O)O)c1ccc2nc(-c3ccccn3)c(-c3ccccn3)nc2c1
EC50 (HCV NS5B polymerase): > 50 µM | IC50 ([1]; Huh-7, 72 h): > 50 µM

Cc1ccc(-c2nc3cc(C(=O)O)ccc3nc2-c2ccc(Cl)cc2)cc1
EC50 (HCV NS5B polymerase; [3]): < 10 µM | IC50 ([1]; Huh-7, 72 h): 10 to 50 µM

Cc1ccc(-c2nc3cc(C(=O)N[C@@H](Cc4c[nH]c5ccc(O)cc45)C(=O)O)ccc3nc2-c2ccc(Cl)cc2)cc1
EC50 (HCV NS5B polymerase; [3]): < 10 µM

NC(=O)[C@H](Cc1c[nH]c2ccc(O)cc12)NC(=O)c1ccc2nc(-c3ccc(F)cc3)c(-c3ccc(F)cc3)nc2c1 [R=NH2, X=OH]
IC50 (HCV NS5B polymerase): < 10 µM | EC50 [1, 4]: 10 to 50 µM

COC(=O)[C@H](Cc1c[nH]c2ccc(O)cc12)NC(=O)c1ccc2nc(-c3ccc(F)cc3)c(-c3ccc(F)cc3)nc2c1 [R=OCH3, X=OH]
IC50 (HCV NS5B polymerase): < 10 µM | EC50 [1, 4]: 10 to 50 µM

O=C(N[C@@H](Cc1c[nH]c2ccc(O)cc12)C(=O)O)c1ccc2nc(-c3ccc(F)cc3)c(-c3ccc(F)cc3)nc2c1 [R=OH, X=OH]
IC50 (HCV NS5B polymerase): < 10 µM | EC50 [1, 4]: 10 to 50 µM
